Calls of active or inactive are those of the source. The calls are words filed in the database; no cut-off is given here.
Experiments:
[1] = biological target: Epidermal growth factor receptor (Homo sapiens, UniProt P00533, L858R/T790M); test: Inhibition of recombinant human GST-tagged EGFR L858R/T790M double mutant cytoplasmic domain (668 to 1210 residues) expressed in baculovirus expression system by Z'-Lyte assay
[2] = biological target: Epidermal growth factor receptor (Homo sapiens, UniProt P00533, L858R); type: cell-based
[3] = system: HCC827; test: Antiproliferative activity against human HCC827 cells harboring EGFR E746_A750 deletion mutant after 48 hrs by MTT assay; type: functional, cell-based
[4] = system: L02; test: Antiproliferative activity against human HL7702 cells after 48 hrs by MTT assay; type: ADME, cell-based
[5] = biological target: Epidermal growth factor receptor (Homo sapiens, UniProt P00533)
Description: Inhibition of recombinant human GST-tagged EGFR cytoplasmic domain (668 to 1210 residues) expressed in baculovirus expression system by Z'-Lyte assay

[6] = system: A-431; test: Antiproliferative activity against EGFR over-expressing human A431 cells after 48 hrs by MTT assay; type: functional, cell-based
[7] = system: A549; test: Antiproliferative activity against human A549 cells harboring wild type EGFR after 48 hrs by MTT assay; type: functional, cell-based
[8] = system: NCI-H1975; test: cells; type: functional, cell-based, Homo sapiens
[9] = system: NCI-H1975; test: Induction of ROS generation in human NCI-H1975 cells harboring EGFR L858R/T790M double mutant at 15 to 60 uM after 4 hrs by DCFH-DA staining based flow cytometry; type: functional, cell-based
[10] = system: NCI-H1975; test: Induction of apoptosis in human NCI-H1975 cells harboring EGFR L858R/T790M double mutant assessed as live cells at 6 uM after 48 hrs by Annexin V/propidium iodide staining based flow cytometry (reference value: 83.5%); type: functional
[11] = system: NCI-H1975; test: Induction of apoptosis in human NCI-H1975 cells harboring EGFR L858R/T790M double mutant assessed as live cells at 3 uM after 48 hrs by Annexin V/propidium iodide staining based flow cytometry (reference value: 83.5%); type: functional
[12] = system: NCI-H1975; test: Induction of apoptosis in human NCI-H1975 cells harboring EGFR L858R/T790M double mutant assessed as late apoptotic cells at 9 uM after 48 hrs by Annexin V/propidium iodide staining based flow cytometry (reference value: 7.2%); type: functional
[13] = system: NCI-H1975; test: Induction of apoptosis in human NCI-H1975 cells harboring EGFR L858R/T790M double mutant assessed as early apoptotic cells at 3 uM after 48 hrs by Annexin V/propidium iodide staining based flow cytometry (reference value: 4.1%); type: functional
[14] = system: NCI-H1975; test: Induction of apoptosis in human NCI-H1975 cells harboring EGFR L858R/T790M double mutant assessed as necrotic cells at 3 uM after 48 hrs by Annexin V/propidium iodide staining based flow cytometry (reference value: 4.13%); type: functional
[15] = system: NCI-H1975; test: Induction of ROS generation in human NCI-H1975 cells harboring EGFR L858R/T790M double mutant assessed as fluorescence level at 12 uM after 4 hrs by DCFH-DA staining based flow cytometry; type: functional
[16] = system: NCI-H1975; test: Induction of apoptosis in human NCI-H1975 cells harboring EGFR L858R/T790M double mutant assessed as necrotic cells at 6 uM after 48 hrs by Annexin V/propidium iodide staining based flow cytometry (reference value: 4.13%); type: functional
[17] = system: NCI-H1975; test: Induction of ROS generation in human NCI-H1975 cells harboring EGFR L858R/T790M double mutant assessed as fluorescence level at 3 uM after 4 hrs by DCFH-DA staining based flow cytometry; type: functional
[18] = system: NCI-H1975; test: Induction of apoptosis in human NCI-H1975 cells harboring EGFR L858R/T790M double mutant assessed as early apoptotic cells at 9 uM after 48 hrs by Annexin V/propidium iodide staining based flow cytometry (reference value: 4.1%); type: functional
[19] = system: NCI-H1975; test: Induction of apoptosis in human NCI-H1975 cells harboring EGFR L858R/T790M double mutant assessed as necrotic cells at 9 uM after 48 hrs by Annexin V/propidium iodide staining based flow cytometry (reference value: 4.13%); type: functional
[20] = system: NCI-H1975; test: Induction of apoptosis in human NCI-H1975 cells harboring EGFR L858R/T790M double mutant after 48 hrs by Annexin V/propidium iodide staining based flow cytometry; type: functional, cell-based
[21] = system: NCI-H1975; test: Induction of ROS generation in human NCI-H1975 cells harboring EGFR L858R/T790M double mutant assessed as fluorescence level at 6 uM after 4 hrs by DCFH-DA staining based flow cytometry; type: functional
[22] = system: NCI-H1975; test: Induction of ROS generation in human NCI-H1975 cells harboring EGFR L858R/T790M double mutant after 4 hrs by DCFH-DA staining based flow cytometry; type: functional, cell-based
[23] = system: NCI-H1975; test: Induction of apoptosis in human NCI-H1975 cells harboring EGFR L858R/T790M double mutant assessed as late apoptotic cells at 6 uM after 48 hrs by Annexin V/propidium iodide staining based flow cytometry (reference value: 7.2%); type: functional
[24] = system: NCI-H1975; test: Induction of apoptosis in human NCI-H1975 cells harboring EGFR L858R/T790M double mutant assessed as early apoptotic cells at 6 uM after 48 hrs by Annexin V/propidium iodide staining based flow cytometry (reference value: 4.1%); type: functional
[25] = system: NCI-H1975; test: Induction of apoptosis in human NCI-H1975 cells harboring EGFR L858R/T790M double mutant assessed as increase in cleaved PARP expression at 2.5 to 10 uM after 24 hrs by Western blot method; type: functional, cell-based
[26] = system: NCI-H1975; test: Induction of apoptosis in human NCI-H1975 cells harboring EGFR L858R/T790M double mutant assessed as late apoptotic cells at 3 uM after 48 hrs by Annexin V/propidium iodide staining based flow cytometry (reference value: 7.2%); type: functional
[27] = system: NCI-H1975; test: Induction of apoptosis in human NCI-H1975 cells harboring EGFR L858R/T790M double mutant assessed as live cells at 9 uM after 48 hrs by Annexin V/propidium iodide staining based flow cytometry (reference value: 83.5%); type: functional
[28] = system: NCI-H1975; test: Induction of ROS generation in human NCI-H1975 cells harboring EGFR L858R/T790M double mutant at 100 uM after 4 hrs by DCFH-DA staining based flow cytometry; type: functional, cell-based

Epidermal growth factor receptor (Homo sapiens, UniProt P00533), sequence (P00533 whole entry): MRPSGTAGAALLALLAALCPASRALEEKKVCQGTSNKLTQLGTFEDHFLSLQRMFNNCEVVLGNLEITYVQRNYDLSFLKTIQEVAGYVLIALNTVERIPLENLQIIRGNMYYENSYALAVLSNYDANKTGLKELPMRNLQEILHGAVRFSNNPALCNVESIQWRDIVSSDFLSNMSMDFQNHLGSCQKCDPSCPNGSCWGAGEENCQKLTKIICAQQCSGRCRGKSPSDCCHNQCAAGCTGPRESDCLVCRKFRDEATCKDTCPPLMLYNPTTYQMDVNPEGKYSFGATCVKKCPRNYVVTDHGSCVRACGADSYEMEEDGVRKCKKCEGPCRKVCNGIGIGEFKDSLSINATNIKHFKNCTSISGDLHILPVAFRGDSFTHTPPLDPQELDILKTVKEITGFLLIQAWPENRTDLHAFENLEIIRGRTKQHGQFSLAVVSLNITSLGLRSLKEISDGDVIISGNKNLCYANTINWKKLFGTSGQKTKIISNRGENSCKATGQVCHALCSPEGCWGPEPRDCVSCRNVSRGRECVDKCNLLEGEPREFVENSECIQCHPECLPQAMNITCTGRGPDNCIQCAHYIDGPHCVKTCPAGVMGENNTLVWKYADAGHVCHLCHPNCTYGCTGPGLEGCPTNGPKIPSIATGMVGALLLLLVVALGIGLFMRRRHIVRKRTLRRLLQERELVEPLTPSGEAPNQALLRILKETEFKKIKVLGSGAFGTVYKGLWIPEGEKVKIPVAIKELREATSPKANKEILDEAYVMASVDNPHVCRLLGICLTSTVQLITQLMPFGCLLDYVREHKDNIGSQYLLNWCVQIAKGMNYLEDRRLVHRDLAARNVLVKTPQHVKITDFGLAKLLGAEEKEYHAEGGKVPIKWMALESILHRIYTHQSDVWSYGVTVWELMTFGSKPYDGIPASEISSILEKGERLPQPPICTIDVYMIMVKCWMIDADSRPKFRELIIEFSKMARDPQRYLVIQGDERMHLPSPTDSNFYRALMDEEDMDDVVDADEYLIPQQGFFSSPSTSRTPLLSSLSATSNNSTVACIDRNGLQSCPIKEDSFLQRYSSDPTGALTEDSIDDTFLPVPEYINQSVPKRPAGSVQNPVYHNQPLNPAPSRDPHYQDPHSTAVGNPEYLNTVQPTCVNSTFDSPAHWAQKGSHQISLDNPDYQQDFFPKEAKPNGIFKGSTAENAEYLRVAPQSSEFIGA
Epidermal growth factor receptor (Homo sapiens, UniProt P00533, L858R), sequence (P00533 25-1210 L858R limits assumed): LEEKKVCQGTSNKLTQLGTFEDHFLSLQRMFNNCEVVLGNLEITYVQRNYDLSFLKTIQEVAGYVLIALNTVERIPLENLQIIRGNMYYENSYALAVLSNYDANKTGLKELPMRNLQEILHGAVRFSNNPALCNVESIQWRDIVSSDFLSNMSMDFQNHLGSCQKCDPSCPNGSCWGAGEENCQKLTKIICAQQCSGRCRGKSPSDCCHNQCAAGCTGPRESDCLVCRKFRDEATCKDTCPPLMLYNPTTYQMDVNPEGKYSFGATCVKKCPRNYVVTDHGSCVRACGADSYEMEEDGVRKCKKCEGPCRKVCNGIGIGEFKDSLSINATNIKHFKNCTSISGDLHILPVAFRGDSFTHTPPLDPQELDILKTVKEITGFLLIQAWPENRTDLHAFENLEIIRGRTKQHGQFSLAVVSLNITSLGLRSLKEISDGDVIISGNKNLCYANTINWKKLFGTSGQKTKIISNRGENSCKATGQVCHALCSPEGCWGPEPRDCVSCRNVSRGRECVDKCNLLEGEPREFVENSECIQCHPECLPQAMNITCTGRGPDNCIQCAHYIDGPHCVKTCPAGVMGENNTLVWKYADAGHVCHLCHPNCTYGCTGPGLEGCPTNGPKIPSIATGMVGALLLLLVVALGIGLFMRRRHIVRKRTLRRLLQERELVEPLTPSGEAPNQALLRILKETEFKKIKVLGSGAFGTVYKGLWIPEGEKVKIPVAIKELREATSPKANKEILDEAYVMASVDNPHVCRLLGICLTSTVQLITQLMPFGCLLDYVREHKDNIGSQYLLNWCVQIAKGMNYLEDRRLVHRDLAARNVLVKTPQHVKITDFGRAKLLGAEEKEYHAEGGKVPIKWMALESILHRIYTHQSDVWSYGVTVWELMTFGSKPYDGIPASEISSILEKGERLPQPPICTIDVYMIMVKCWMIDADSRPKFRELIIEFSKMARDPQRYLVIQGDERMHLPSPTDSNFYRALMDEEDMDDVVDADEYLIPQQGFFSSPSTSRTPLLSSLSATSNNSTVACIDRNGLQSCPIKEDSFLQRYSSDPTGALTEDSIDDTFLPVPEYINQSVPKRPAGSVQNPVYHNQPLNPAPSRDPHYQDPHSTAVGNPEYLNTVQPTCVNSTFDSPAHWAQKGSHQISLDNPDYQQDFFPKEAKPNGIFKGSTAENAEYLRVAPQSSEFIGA

| SMILES | IC50 [1] | IC50 [2] | IC50 ([3]; Homo sapiens, HCC827, 48 h) | IC50 ([4]; Homo sapiens, L02, 48 h) | IC50 [5] | IC50 ([6]; Homo sapiens, A-431, 48 h) | IC50 ([7]; Homo sapiens, A549, 48 h) | IC50 ([8]; Homo sapiens, NCI-H1975, 48 h) | IC50 ([3]; hcc827) | IC50 ([6]; a-431) | IC50 ([8]; nci-h1975) | further results |
| --- | --- | --- | --- | --- | --- | --- | --- | --- | --- | --- | --- | --- |
| O=C(O)C1CCC2(CC1)OOC1(OO2)C2CC3CC(C2)CC1C3 (stereo not given) | > 10 µM | > 10 µM | > 50 µM | > 100 µM | > 10 µM | > 100 µM | > 100 µM | > 50 µM |  |  |  |  |
| O=C(Nc1ccc2ncnc(Nc3cccc(Cl)c3)c2c1)C1CCC2(CC1)OCC1(OO2)C2CC3CC(C2)CC1C3 (stereo in doubt; 8) |  | 0.175 µM |  |  | 0.117 µM |  |  |  | 10.7 µM | 23.1 µM | 48.5 µM | IC50 ([7]; a549): 24.7 µM |
| O=C(Nc1ccc2ncnc(Nc3cccc(Cl)c3)c2c1)C1CCC2(CC1)OOC1(O2)C2CC3CC(C2)CC1C3 (stereo not given) | > 10 µM | 0.0489 µM | 2.29 µM | 18.2 µM | 0.0324 µM | 31.5 µM | 8.45 µM | 13 µM |  |  |  |  |
| O=C(Nc1ccc2nccc(Nc3cccc(Cl)c3)c2c1)C1CCC2(CC1)OOC1(O2)C2CC3CC(C2)CC1C3 (stereo in doubt; 14) |  | 0.146 µM |  |  | 0.128 µM |  |  |  | 17 µM | 13.6 µM | 22.3 µM | IC50 ([4]; l02): > 50 µM; IC50 ([7]; a549): 18.3 µM |
| O=C(Nc1ccc2nccc(Nc3cccc(Cl)c3)c2c1)C1CCC2(CC1)OOC1(O2)C2CC3CC(C2)CC1C3 (stereo in doubt; 13) | > 10 µM | 0.236 µM | 12 µM | 25.5 µM | 0.178 µM |  | 25.3 µM | 33.4 µM |  | > 50 µM |  |  |
| O=C(Nc1ccc2ncnc(Nc3cccc(Cl)c3)c2c1)C1CCCCC1 | > 10 µM | 0.00696 µM | 2.55 µM | > 50 µM | 0.00613 µM | > 50 µM | 6.36 µM | 41.8 µM |  |  |  |  |
| COc1cc2ncnc(Nc3ccc(F)c(Cl)c3)c2cc1OCCCN1CCOCC1 |  |  |  |  |  |  |  |  |  |  |  | Activity [9]: inactive |
| O=C(Nc1ccc2ncnc(Nc3cccc(Cl)c3)c2c1)C1CCC2(CC1)OOC1(OO2)C2CC3CC(C2)CC1C3 (stereo not given) | > 10 µM | 0.374 µM | 0.31 µM | 5.7 µM | 0.38 µM | 8.06 µM | 0.92 µM | 3.06 µM |  |  |  | Activity [10]: 74.2%; Activity [11]: 83.5%; Activity [12]: 19.8%; Activity [13]: 7.54%; Activity [14]: 4.57%; Flu intensity [15]: 6.42; Activity [16]: 4.26%; Flu intensity [17]: 2.59; Activity [18]: 7.56%; Activity [19]: 9.31%; Activity [20]: Dose-dependent effect; Flu intensity [21]: 3.53; Activity [22]: Dose-dependent effect; Activity [23]: 8.12%; Activity [24]: 12.7%; Activity [25]: Active; Activity [26]: 7.47%; Activity [27]: 52.2% |
| Nc1ccc2ncnc(Nc3cccc(Cl)c3)c2c1 |  |  |  |  |  |  |  |  | 0.1 µM | > 50 µM | > 50 µM | IC50 ([4]; l02): > 100 µM; IC50 ([7]; a549): > 100 µM |
| O=C(Nc1ccc2nccc(Nc3cccc(Cl)c3)c2c1)C1CCC2(CC1)OCC1(OO2)C2CC3CC(C2)CC1C3 (stereo not given) | > 10 µM | 0.132 µM | 31.6 µM | > 100 µM | 0.169 µM | > 50 µM | 26.1 µM | > 50 µM |  |  |  | Activity [28]: inactive |
| CC1(C)OOC2(CCC(C(=O)Nc3ccc4ncnc(Nc5cccc(Cl)c5)c4c3)CC2)OO1 | > 10 µM | 0.0171 µM | 0.26 µM | 25.8 µM | 0.0114 µM | 19.6 µM | 3.62 µM | 1.77 µM |  |  |  |  |
| O=C(Nc1ccc2ncnc(Nc3cccc(Cl)c3)c2c1)C1CCC2(CC1)OCC1(OO2)C2CC3CC(C2)CC1C3 (stereo in doubt; 7) | > 10 µM | 0.112 µM |  | > 100 µM | 0.0947 µM | 22 µM | 18 µM |  | 5.09 µM |  | 21.3 µM |  |
| O=C(Nc1ccc2ncnc(Nc3cccc(Cl)c3)c2c1)C1CCC2(CC1)OOC1(CCCCC1)OO2 | > 10 µM | 0.112 µM | 0.05 µM | 1.43 µM | 0.0838 µM | 3.99 µM | 0.87 µM | 0.89 µM |  |  |  |  |
